The values below come from publication PMC5554220, “A Novel Aldosterone Antagonist Limits Renal Injury in 5/6 Nephrectomy” (Scientific Reports, 2017).

Structures are written as SMILES.

Assay [1] deals with T1, human mineralocorticoid receptor (hMR) (Homo sapiens, UniProt P08235).
T1 construct: made in house; host or cells: Sf9 insect cells (baculovirus)
T1 sequence (P08235 1-984): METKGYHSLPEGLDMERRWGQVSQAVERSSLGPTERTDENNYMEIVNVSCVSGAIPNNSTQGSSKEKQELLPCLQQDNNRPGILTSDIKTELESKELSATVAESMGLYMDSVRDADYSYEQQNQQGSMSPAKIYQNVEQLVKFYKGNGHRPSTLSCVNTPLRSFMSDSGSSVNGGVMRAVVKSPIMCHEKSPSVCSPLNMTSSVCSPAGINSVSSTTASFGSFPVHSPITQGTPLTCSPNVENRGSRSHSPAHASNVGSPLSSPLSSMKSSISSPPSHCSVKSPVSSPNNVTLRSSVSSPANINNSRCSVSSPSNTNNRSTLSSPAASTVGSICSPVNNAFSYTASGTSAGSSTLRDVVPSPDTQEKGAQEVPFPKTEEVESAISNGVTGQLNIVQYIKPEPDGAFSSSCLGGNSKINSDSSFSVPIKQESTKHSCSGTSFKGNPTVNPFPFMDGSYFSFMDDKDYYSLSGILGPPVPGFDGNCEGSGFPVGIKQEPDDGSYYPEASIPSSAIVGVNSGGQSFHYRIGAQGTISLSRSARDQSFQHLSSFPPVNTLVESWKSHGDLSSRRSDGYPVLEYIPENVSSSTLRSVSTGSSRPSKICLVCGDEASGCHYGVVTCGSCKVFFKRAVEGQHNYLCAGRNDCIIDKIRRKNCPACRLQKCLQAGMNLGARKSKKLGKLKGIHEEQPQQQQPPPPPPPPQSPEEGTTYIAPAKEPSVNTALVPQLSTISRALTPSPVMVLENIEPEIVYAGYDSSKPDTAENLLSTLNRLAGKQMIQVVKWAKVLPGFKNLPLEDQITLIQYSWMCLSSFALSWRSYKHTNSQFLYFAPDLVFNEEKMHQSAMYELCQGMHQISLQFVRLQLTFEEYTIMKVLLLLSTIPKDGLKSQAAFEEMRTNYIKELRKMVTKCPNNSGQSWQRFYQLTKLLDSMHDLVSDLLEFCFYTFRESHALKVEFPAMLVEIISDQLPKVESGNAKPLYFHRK
The assay is described as follows: Radioligand binding, [3H]aldosterone, hMR Sf9 lysate, vacuum filtration. As to the method: (§1) Full-length human mineralocorticoid receptor (hMR) to be used in radioligand binding was isolated from a human kidney cDNA library (Clontech, Palo Alto, CA). […] The hMR, hPR, and hAR cDNAs were subcloned in the eukaryotic expression vector pcDNA3. Methods for the expression of functionally active hMR, hAR and hPR utilizing the baculovirus expression system were described previously, [31].
(§2) Affinity of ligands to the soluble receptor was determined using vacuum filtration methods, preparing soluble receptors in 96-well Falcon polystyrene plates (BD Biosciences, Bedford, MA) in a total volume of 250 μl. […] Binding studies for ligands for hPR and hAR were determined using [1,2,6,7-3H(N)] […] Specific binding of 3H-progesterone for hPR and 3H-mibolerone for hAR was determined in the presence and absence of 1 μM mifepristone. Inhibition constants (Ki), were determined either from the Cheng-Prusoff equation[32], or directly using non-linear regression curve fitting to a three-parameter one-site competitive equation. […] Protein was measured using colorimetric detection and quantification of bicinchoninic acid (BCA Protein Assay, Pierce, Rockford, IL). […] Concentration response curves were analyzed statistically using a four-parameter logistic equation (Hill equation for sigmoid curves). […]

Assay [2] deals with T2, human androgen receptor (hAR) (Homo sapiens, UniProt P10275, DEL79-80/DUP470-473/R9G).
T2 construct: made in house; host or cells: Sf9 insect cells (baculovirus)
T2 sequence (P10275 with tags, fused parts or gaps R9G/DEL79-80/DUP470-473): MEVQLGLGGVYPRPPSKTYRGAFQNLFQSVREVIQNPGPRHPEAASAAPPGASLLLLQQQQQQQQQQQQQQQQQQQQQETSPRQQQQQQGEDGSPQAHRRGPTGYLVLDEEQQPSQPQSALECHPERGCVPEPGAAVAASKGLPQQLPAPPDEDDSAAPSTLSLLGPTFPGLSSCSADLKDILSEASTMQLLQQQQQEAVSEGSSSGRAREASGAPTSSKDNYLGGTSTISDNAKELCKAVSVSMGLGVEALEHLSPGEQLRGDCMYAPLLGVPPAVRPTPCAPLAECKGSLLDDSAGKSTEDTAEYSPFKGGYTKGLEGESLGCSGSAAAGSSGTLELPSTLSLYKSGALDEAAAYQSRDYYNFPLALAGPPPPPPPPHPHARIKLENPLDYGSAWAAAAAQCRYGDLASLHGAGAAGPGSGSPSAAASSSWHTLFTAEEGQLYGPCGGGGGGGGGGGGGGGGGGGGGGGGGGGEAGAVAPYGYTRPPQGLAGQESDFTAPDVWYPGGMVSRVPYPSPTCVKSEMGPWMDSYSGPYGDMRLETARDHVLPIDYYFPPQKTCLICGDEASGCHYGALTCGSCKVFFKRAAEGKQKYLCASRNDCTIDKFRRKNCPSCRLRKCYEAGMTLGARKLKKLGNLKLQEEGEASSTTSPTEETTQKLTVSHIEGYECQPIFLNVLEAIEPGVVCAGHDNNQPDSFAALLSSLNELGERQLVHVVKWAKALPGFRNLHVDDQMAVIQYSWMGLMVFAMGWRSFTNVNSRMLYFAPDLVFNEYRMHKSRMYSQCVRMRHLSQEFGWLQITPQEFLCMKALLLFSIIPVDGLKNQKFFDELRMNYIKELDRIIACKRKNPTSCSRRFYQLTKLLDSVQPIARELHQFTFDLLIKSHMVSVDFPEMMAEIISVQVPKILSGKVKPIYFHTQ
The assay is described as follows: Radioligand binding, [3H]mibolerone, hAR expressed in Sf9. The conditions noted are these: hAR expressed in Sf9; [3H]mibolerone 0.3 nM; read-out: Mean Ki ± SEM hAR. As to the method: as §1, §2

The test system of assay [3] is human androgen receptor (hAR). The description is as above. The settings on record: selectivity. How it is done: as §1, §2

In the case of `O=c1[nH]c2ccc(/C=C3\c4ccc(F)cc4COc4cc(F)ccc43)cc2[nH]1` [Ly], the Ki in assay [1] (hMR expressed in Sf9, [3H]aldosterone 0.5 nM, read-out: Mean Ki ± SEM hMR) is 0.0016 ± 0.0003 µM; in assay [2] it was 0.323 ± 0.101 µM. In assay [1] (hMR, 124/1.6), the “Eple/Ly Ki ratio” value worked out at 77.5. Besides, the “Ratio of Ki's hAR: hMR” value in assay [3] is 202.
